For one assay, the system named is cancer cell metastasis. The conditions noted are these: ref [17]; cited from earlier work. An excerpt: KPs inhibit metastasis in a variety of cancers, including melanoma, breast, endometrial, gastric ovarian cancers, and others. Therefore, KP analogues may act as inhibitors of cancer metastasis which is the major cause of cancer death.
In another assay the test system is MMP-2. Nature of the assay: MMP-2 activity, MMP colorimetric drug discovery kit. The conditions noted are these: 1.3 μM, 37°C 1 hour, 412 nm; three independent experiments. The assay is classed as biochemical. The method, then: (§1) The activity of MMPs was measured using MMP colorimetric drug discovery kits in a 96-well microtiter plate according to the manufacturer’s instructions. Different concentrations of the phosphinic peptides or 1.3 μM N-Isobutyl-N-(4-methoxyphenylsulfonyl)glycyl hydroxamic acid (NNGH), a positive inhibitor for MMPs, were, respectively, added to the assay mixtures containing MMP enzyme (MMP-2 or MMP-9; 9 mU/μL). The plates were then incubated at 37°C for 1 hour for enzyme reaction. After that, a final concentration of 100 μM colorimetric substrate (Ac-PLG-[2-mercapto-4-methyl-pentanoyl]-LGOC2H5) was added to each well and the plates were then read at 412 nm every minute for at least 20 minutes using PHERAStar FS microplate reader. The full enzyme activity (control) was measured without addition of any inhibitor or tested peptides. The reaction velocity (V) was determined by calculating the slope of the fitted line to the linear portion of the data collected. The slope of blank (without addition of MMP enzyme) was subtracted from all samples and the remaining activity of the enzyme was calculated using following formula.
(§2) %Enzymeactivity=V(inhibitor)/V(control)*100
(§3) Fig 7 Effect of KP phosphinic peptides on MMP-2 (A) or MMP-9 (B) enzyme activity. […] The maximum activity (control) was measured in the absence of inhibitors. […]

In a further assay the test system is MMP-9. Nature of the assay: MMP-9 activity, MMP colorimetric drug discovery kit. The assay is classed as biochemical. The note with it: 1.3 μM, 37°C 1 hour, 412 nm; three independent experiments. The method, then: as §1, §2, §3

Ends that are not written are not given here.

As to “KP-54: endogenous 54-amino acid peptide ligand of kisspeptin receptor (GTSLSPPPESSGSPQQPGLSAPHSRQIPAPQGAVLVQREKDLPNYNWNSFGLRF; ends and bridges not checked; UniProt Q15726 68-121, looked up)”, the “inhibition of cancer cell metastasis” value with cancer cell metastasis is given as “inhibit cancer cell metastasis”.

Consider `COc1ccc(S(=O)(=O)N(CC(=O)NO)CC(C)C)cc1` [NNGH, N-Isobutyl-N-(4-methoxyphenylsulfonyl)glycyl hydroxamic acid], for which the “inhibition of MMP-2 activity by positive control” value in the assay on MMP-2 was “almost completely inhibited”. Also, the “inhibition of MMP-9 activity by positive control” value in the assay on MMP-9 was “almost completely inhibited”.
